In the supplement of paper PMC11061612:

How the values were obtained:
Experiment in all cases: combination Emax (second highest fraction inhibited in the dose matrix, 72 h); higher = more inhibition; extreme values may be limits of the assay
GAK (Melanoma) = system: GAK (Melanoma)
How it was run: (§1)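 Bliss excess equals the observed combination effect minus the expected value EA + EB − EA·EB, where EA and EB are the effects of each agent alone. Combination Emax is the second-highest inhibition within the matrix. Inhibition was scaled from CellTiter-Glo 2.0 luminescence, with 0 set by vehicle wells and 1 by blank wells, after 72 hours of two-drug dosing of cells plated in 1536-well plates.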

[1] = system: ZR-75-30 (Breast Carcinoma)
How it was run: as §1

[2] = system: HPAF-II (Pancreatic Carcinoma)
How it was run: as §1

[3] = system: NCI-H3118 (Head and Neck Carcinoma)
How it was run: as §1

[4] = system: SK-CO-1 (Colorectal Carcinoma)
How it was run: as §1

[5] = system: C-33-A (Cervical Carcinoma)
How it was run: as §1

[6] = system: SNU-423 (Hepatocellular Carcinoma)
How it was run: as §1

[7] = system: SKG-IIIa (Cervical Carcinoma)
How it was run: as §1

[8] = system: RCC-JW (Kidney Carcinoma)
How it was run: as §1

[9] = system: T84 (Colorectal Carcinoma)
How it was run: as §1

[10] = system: BxPC-3 (Pancreatic Carcinoma)
How it was run: as §1

SK-N-SH (Neuroblastoma) = system: SK-N-SH (Neuroblastoma)
How it was run: as §1

[11] = system: SCC-4 (Oral Cavity Carcinoma)
How it was run: as §1

[12] = system: LCLC-103H (Non-Small Cell Lung Carcinoma)
How it was run: as §1

[13] = system: LS-1034 (Colorectal Carcinoma)
How it was run: as §1

[14] = system: MDA-MB-415 (Breast Carcinoma)
How it was run: as §1

KALS-1 (Glioblastoma) = system: KALS-1 (Glioblastoma)
How it was run: as §1

[15] = system: COR-L88 (Small Cell Lung Carcinoma)
How it was run: as §1

NCI-H226 (Mesothelioma) = system: NCI-H226 (Mesothelioma)
How it was run: as §1

[16] = system: IA-LM (Non-Small Cell Lung Carcinoma)
How it was run: as §1

Row | SMILES | combination Emax (GAK (Melanoma)) | combination Emax [1] | combination Emax [2] | combination Emax [3] | combination Emax [4] | combination Emax [5] | combination Emax [6] | combination Emax [7] | combination Emax [8] | combination Emax [9] | combination Emax [10] | combination Emax (SK-N-SH (Neuroblastoma)) | combination Emax [11] | combination Emax [12] | combination Emax [13] | combination Emax [14] | combination Emax (KALS-1 (Glioblastoma)) | combination Emax [15] | combination Emax (NCI-H226 (Mesothelioma)) | combination Emax [16]
1 | Cc1c2c(nn1C)CSCc1cc(n(C)n1)CSc1cc(c3ccccc3c1)OCCCc1c(C(=O)O)n(C)c3c-2c(Cl)ccc13 [AZD5991] + CC(=O)O[C@H]1C(=O)[C@@]2(C)[C@H]([C@H](OC(=O)c3ccccc3)[C@]3(O)C[C@H](OC(=O)[C@H](O)[C@@H](NC(=O)c4ccccc4)c4ccccc4)C(C)=C1C3(C)C)[C@]1(OC(C)=O)CO[C@@H]1C[C@@H]2O [Paclitaxel] (first compound max 1 µM, 7x7, partner max 3 µM) | 0.548 | 0.441 | 0.53 | 0.973 | 0.858 | 0.912 | 0.672 | 0.487 | 0.737 | 0.701 | 0.686 | 0.926 | 0.868 | 0.91 | 0.587 | 0.838 | 0.951 | 0.515 | 0.378 | 0.199
2 | Cc1c2c(nn1C)CSCc1cc(n(C)n1)CSc1cc(c3ccccc3c1)OCCCc1c(C(=O)O)n(C)c3c-2c(Cl)ccc13 [AZD5991] + CS(=O)(=O)CCNCc1ccc(-c2ccc3ncnc(Nc4ccc(OCc5cccc(F)c5)c(Cl)c4)c3c2)o1 [Lapatinib] (first compound max 1 µM, 7x7, partner max 10 µM) | 0.352 | 0.974 | 0.213 | 0.723 | 0.471 | 0.514 | 0.289 | 0.456 | 0.981 | 0.469 | 0.483 | 0.442 | 0.81 | 0.2 | 0.39 | 0.558 | 0.332 | 0.305 | 0.145 | 0.297
3 | Cc1c2c(nn1C)CSCc1cc(n(C)n1)CSc1cc(c3ccccc3c1)OCCCc1c(C(=O)O)n(C)c3c-2c(Cl)ccc13 [AZD5991] + Nc1ccn([C@@H]2O[C@H](CO)[C@@H](O)C2(F)F)c(=O)n1 [Gemcitabine] (first compound max 1 µM, 7x7, partner max 0.3 µM) | 0.473 | 0.36 | 0.268 | 0.818 | 0.864 | 0.895 | 0.43 | 0.332 | 0.828 | 0.521 | 0.47 | 0.757 | 0.53 | 0.513 | 0.614 | 0.526 | 0.542 | 0.485 | 0.173 | 0.261
4 | C[C@@H]1COCCN1c1cc(C2([S@](C)(=N)=O)CC2)nc(-c2ccnc3[nH]ccc23)n1 [AZD6738] + Nc1ccn([C@@H]2O[C@H](CO)[C@@H](O)C2(F)F)c(=O)n1 [Gemcitabine] (first compound max 10 µM, 7x7, partner max 0.3 µM) | 0.503 | 0.269 | 0.577 | 0.846 | 0.897 | 0.969 | 0.724 | 0.623 | 0.877 | 0.793 | 0.63 | 0.932 | 0.849 | 0.794 | 0.902 | 0.642 | 0.896 | 0.756 | 0.495 | 0.462
5 | Cc1cc2ncnn2cc1Nc1ncc2c(n1)n(C1CCOCC1)c(=O)n2C [AZD7648] + COc1cc([C@@H]2c3cc4c(cc3[C@@H](O[C@@H]3O[C@@H]5CO[C@@H](C)O[C@H]5[C@H](O)[C@H]3O)[C@H]3COC(=O)[C@H]23)OCO4)cc(OC)c1O [Etoposide] (first compound max 10 µM, 7x7, partner max 10 µM) | 0.525 | 0.258 | 0.199 | 0.768 | 0.879 | 0.945 | 0.555 | 0.551 | 0.56 | 0.398 | 0.223 | 0.945 | 0.469 | 0.584 | 0.335 | 0.483 | 0.787 | 0.36 | 0.332 | 0.28
6 | C[C@@H](Nc1cc(F)cc(F)c1)c1cc(C(=O)N(C)C)cc2c(=O)cc(N3CCOCC3)oc12 [AZD8186] + C1CN(CCC1(C(=O)N[C@@H](CCO)C2=CC=C(C=C2)Cl)N)C3=NC=NC4=C3C=CN4 [AZD5363] (first compound max 10 µM, 7x7, partner max 10 µM) | 0.261 | 0.441 | 0.249 | 0.519 | 0.725 | 0.589 | 0.416 | 0.303 | 0.537 | 0.337 | 0.323 | 0.364 | 0.383 | 0.417 | 0.294 | 0.834 | 0.398 | 0.171 | 0.295 | 0.215
7 | C[C@@H](Nc1cc(F)cc(F)c1)c1cc(C(=O)N(C)C)cc2c(=O)cc(N3CCOCC3)oc12 [AZD8186] + CC(=O)c1c(C)c2cnc(Nc3ccc(N4CCNCC4)cn3)nc2n(C2CCCC2)c1=O [Palbociclib] (first compound max 10 µM, 7x7, partner max 10 µM) | 0.448 | 0.336 | 0.466 | 0.568 | 0.749 | 0.353 | 0.454 | 0.235 | 0.588 | 0.235 | 0.347 | 0.492 | 0.327 | 0.476 | 0.438 | 0.794 | 0.38 | 0.201 | 0.297 | 0.311
8 | C[C@@H](Oc1cc(-c2cnn(C3CCNCC3)c2)cnc1N)c1c(Cl)ccc(F)c1Cl [Crizotinib] + CC1=C(C(=CC=C1)Cl)NC(=O)C2=CN=C(S2)NC3=CC(=NC(=N3)C)N4CCN(CC4)CCO [Dasatinib] (first compound max 10 µM, 7x7, partner max 2 µM) | 0.694 | 0.036 | 0.431 | 0.881 | 0.954 | 0.582 | 0.934 | 0.734 | 0.851 | 0.58 | 0.938 | 0.859 | 0.913 | 0.722 | 0.835 | 0.323 | 0.925 | 0.435 | 0.558 | 0.601
9 | C[C@@H](Oc1cc(-c2cnn(C3CCNCC3)c2)cnc1N)c1c(Cl)ccc(F)c1Cl [Crizotinib] + Cn1cnc2c(F)c(Nc3ccc(Br)cc3Cl)c(C(=O)NOCCO)cc21 [Selumetinib] (first compound max 10 µM, 7x7, partner max 10 µM) | 0.851 | 0.0695 | 0.687 | 0.627 | 0.989 | 0.421 | 0.823 | 0.254 | 0.665 | 0.576 | 0.439 | 0.854 | 0.496 | 0.412 | 0.79 | 0.275 | 0.538 | 0.409 | 0.393 | 0.245
10 | CS(=O)(=O)CCNCc1ccc(-c2ccc3ncnc(Nc4ccc(OCc5cccc(F)c5)c(Cl)c4)c3c2)o1 [Lapatinib] + Cn1cnc2c(F)c(Nc3ccc(Br)cc3Cl)c(C(=O)NOCCO)cc21 [Selumetinib] (first compound max 10 µM, 7x7, partner max 10 µM) | 0.722 | 0.807 | 0.877 | 0.653 | 0.886 | 0.55 | 0.508 | 0.393 | 0.988 | 0.763 | 0.909 | 0.398 | 0.557 | 0.309 | 0.727 | 0.389 | 0.575 | 0.215 | 0.228 | 0.318
11 | CS(=O)(=O)CCNCc1ccc(-c2ccc3ncnc(Nc4ccc(OCc5cccc(F)c5)c(Cl)c4)c3c2)o1 [Lapatinib] + NC1(c2ccc(-c3nc4ccn5c(=O)[nH]nc5c4cc3-c3ccccc3)cc2)CCC1 [MK-2206] (first compound max 10 µM, 7x7, partner max 10 µM) | 0.872 | 0.912 | 0.402 | 0.783 | 0.793 | 0.895 | 0.912 | 0.36 | 0.964 | 0.832 | 0.614 | 0.921 | 0.719 | 0.538 | 0.919 | 0.972 | 0.718 | 0.812 | 0.164 | 0.487
12 | O=C(c1cc(Cc2n[nH]c(=O)c3ccccc23)ccc1F)N1CCN(C(=O)C2CC2)CC1 [Olaparib] + CC1(C)CCC(CN2CCN(c3ccc(C(=O)NS(=O)(=O)c4ccc(NCC5CCOCC5)c([N+](=O)[O-])c4)c(Oc4cnc5[nH]ccc5c4)c3)CC2)=C(c2ccc(Cl)cc2)C1 [Venetoclax] (first compound max 10 µM, 7x7, partner max 1 µM) | 0.0703 | 0.158 | 0.119 | 0.153 | 0.769 | 0.305 | 0.115 | 0.147 | 0.163 | 0.065 | 0.148 | 0.545 | 0.0794 | 0.155 | 0.008 | 0.179 | 0.118 | 0.373 | 0.0963 | 0.155
